# Results as given in US11370775B2, “Substituted benzimidazole derivatives as D-amino acid oxidase (DAAO) inhibitors” (NATIONAL TAIWAN UNIVERSITY, priority 2016, dated 2022).
# Columns and labels:
# Format in all cases: in vivo
# [1] = tested on: MK-801-induced hyperlocomotion in C57BL/6 mice; assay: Open field, MK-801-induced hyperlocomotion
# Source text: (§1) The NMDA-receptor antagonist MK-801-induced negative or cognitive deficits in C57BL/6 mice were in a well-established drug-induced schizophrenia mouse model and as a useful pharmacological animal model to identify if the RS-D7, its analog and its prodrug improve the symptoms through the NMDA receptor.
# (§2) All wild-type (WT) mice used in this study were backcrossed onto a C57BL/6J background from the Laboratory Animal Center of National Taiwan University Hospital, and all behavioral examinations were conducted in WT mice. For acclimatizing to laboratory conditions, the mice were allowed free access to food and water and were housed in groups with a 12 hours light-dark cycle in a temperature and humidity controlled room of the Psychology Department, National Taiwan University. All animals within the age of 3 months were housed individually one week before experiment testing with food and water available ad libitum. In the beginning of the experiments, the mice were handled and weighted daily at least 1 week before the behavioral experiments. The entire animal procedures were performed according to protocols approved by the Animal Care and Use Committee established by the National Taiwan University.
# (§3) MK-801 was dissolved in saline and administered at a volume of 0.01 ml/g body weight. RS-D7, Drug 12083 (analog of RS-D7) and was freshly dissolved in 1% CMC to the concentration of 2 mg/ml before usage. Prodrug 28095 was freshly dissolved in NMP:HP-beta-CD:H2O (5:25:70) to the concentration of 2 mg/ml before usage. All animals were given vehicle (saline) or MK-801 (0.2 mg/kg, i.p.) 25 minutes before the behavioral experiments. Both vehicle (1% CMC or NMP:HP-beta-CD:H2O) and experimental groups (RS-D7, Drug 12083 or Prodrug 28095) were treated after 5 minutes MK-801 administration with the appropriate dose via P.O. injections (at a volume of 0.01 ml/g body weight).
# (§4) For investigating the treatment effect of RS-D7 for negative and cognitive symptoms, a series of three behavioral tests (run from the first to the third week), which included open field, sucrose preference test and prepulse inhibition were performed in sequence with a 1-week interval between tests.
# To assess spontaneous locomotor activity, each subject was placed into the center of an open-field apparatus (25.40*25.40*40.64 cm^3, Coulbourn Instruments, Whitehall, Pa., USA) under dim lighting condition (60 lx). Motor activity parameters (including total travel distance and travel distance per 10 minutes) were monitored and recorded over a 60 minutes period by using Smart video tracking software (Panlab, Harvard apparatus, US). For comparing the treatment effects of different treatment groups, the percentage change of rescue effect on MK-801-induced hyperlocomotion was calculated using the following formula: %=(rescue effect of drug−MK-801 effect)×100%/MK-801 effect.
# [2] = tested on: MK-801-induced anhedonia in C57BL/6 mice; assay: Sucrose preference test, MK-801-induced anhedonia
# Source text: as §1, §2, §3, §4
# To assess the anhedonia, one of the negative symptoms of schizophrenia, all mice underwent 4-day testing. In the beginning of the sucrose preference, all mice were deprived of water for 23 hours in all the experiment from one day before the first day. On the first day, each mouse was given free access to 2 identical bottles with water for 1 hour. Then, the 2 identical bottles were replaced that one filled with 1% (wt/vol) sucrose solution and the other with water on the second day. On the third and fourth day, each mouse was received MK-801 and RS-D7 treatment before the experiment, and also free accessed to bottles for 1 hour. After the experiment, the 2 bottles were weighted to measure the 1-hour consumption of sucrose solution and water. The sucrose preference percentage (SPP) was calculated using the following formula: % SPP=sucrose solution consumption (g)×100%/[water consumption (g)+sucrose solution consumption (g)].
# [3] = tested on: MK-801-induced PPI deficit in C57BL/6 mice; assay: Prepulse inhibition, MK-801-induced PPI deficit; settings: MK-801 0.2 mg/kg i.p.
# Source text: as §1, §2, §3, §4
# To assess the sensorimotor gating function, each mouse was tested with the SR-LAB startle apparatus (San Diego Instruments, San Diego, Calif., USA). The background noise was 72 dB during testing. Each session was initiated with a 5 minutes acclimatization period followed by 64 trials, consisting of pulse-alone (P-alone) trials, prepulse pulse (pp+P) trials, and no stimulation (nostim) trials. A P-alone trial was a 120 dB white noise burst of 40 msec. In the pp+P trials, the 120 dB pulse was preceded (by 100 msec) by a 20 msec of white noise prepulse burst of 78 dB (PP6), 82 dB (PP10), or 90 dB (PP18). The nostim trials consisted of background noise only. The session began and ended with a block of six presentations of the P-alone trial. Between these two blocks, the rest of the 52 trials were performed pseudorandomly and separated by intertrial intervals of 15 sec on average (varying between 10 and 20 sec). PPI was calculated as a percentage of the startle response using the formula: % PPI=100× [(P-alone score)-(pp+P score)]/(pulse-alone score), where the pulse-alone score was the average of the pulse-alone values from the in-between block of 52 trials.
smiles,measurement,setting,value
"COc1c(C)cnc(C[S+]([O-])c2nc3cc(OC(=O)CC(C)CC(C)(C)C)ccc3[nH]2)c1C (stereo not drawn) [compound 28095, 2-(((4-methoxy-3,5-dimethylpyridin-2-yl)methyl)sulfinyl)-1H-benzo[d]imidazol-5-yl 3,5,5-trimethylhexanoate]",Effect on MK-801 induced hyperlocomotion (open field),"[1]; 100 mg/kg P.O., MK-801 0.2 mg/kg i.p., mice",alleviated MK-801 induced hyperlocomotion
same,Effect on MK-801-induced hyperlocomotion (FIG. 1),"[1]; different dosages, compared to the MK-801 group",can rescue the MK-801-induced hyperlocomotion
same,Effect on MK-801 induced anhedonia (sucrose preference),"[2]; 200 mg/kg P.O., MK-801 0.2 mg/kg i.p., mice",normalized MK-801 induced anhedonia
same,Effect on anhedonia after acute MK-801 injection (FIG. 2),[2]; different dosages,rescue the anhedonia after acute MK-801 injection
same,Effect on MK-801 induced PPI deficit,[3]; 100 mg/kg P.O.,significantly alleviated MK-801 induced PPI deficit
same,Effect on MK-801 induced PPI deficit,[3]; 200 mg/kg P.O.,significantly alleviated MK-801 induced PPI deficit
